In ChEMBL document CHEMBL5728262, “Oxadiazolones as transient receptor potential channel inhibitors” (2021):

Biological target: Transient receptor potential cation channel subfamily A member 1 (Homo sapiens, UniProt O75762)
Assay: FLIPR Assay: The IC50 (effective concentration) of compounds on the human and rat TRPA1 channels were determined using a FLIPR Tetra instrument. CHO cells expressing TRPA1 were plated into 384-well plates, incubated overnight at 37° C., and loaded with BD calcium indicator dye for 1 hr at 37° C. followed by 15 minutes at room temperature. The assay buffer was Hank's Balanced Salt Solution (HBSS) containing 20 mM HEPES (pH readjusted to 7.4) along with 0.02% BSA.Following dye load and plate cool down, compounds were added to the cells using FLIPR Tetra. Plates were then incubated with compounds for 20 minutes at room temperature prior to adding agonist. […] Fixing the Hill coefficient will generally reduce variability of the IC50 determination. The IC50 results were individually examined to make sure the MIN and MAX points were set correctly prior to validation of the results.

Chain of Transient receptor potential cation channel subfamily A member 1 (O75762 whole entry): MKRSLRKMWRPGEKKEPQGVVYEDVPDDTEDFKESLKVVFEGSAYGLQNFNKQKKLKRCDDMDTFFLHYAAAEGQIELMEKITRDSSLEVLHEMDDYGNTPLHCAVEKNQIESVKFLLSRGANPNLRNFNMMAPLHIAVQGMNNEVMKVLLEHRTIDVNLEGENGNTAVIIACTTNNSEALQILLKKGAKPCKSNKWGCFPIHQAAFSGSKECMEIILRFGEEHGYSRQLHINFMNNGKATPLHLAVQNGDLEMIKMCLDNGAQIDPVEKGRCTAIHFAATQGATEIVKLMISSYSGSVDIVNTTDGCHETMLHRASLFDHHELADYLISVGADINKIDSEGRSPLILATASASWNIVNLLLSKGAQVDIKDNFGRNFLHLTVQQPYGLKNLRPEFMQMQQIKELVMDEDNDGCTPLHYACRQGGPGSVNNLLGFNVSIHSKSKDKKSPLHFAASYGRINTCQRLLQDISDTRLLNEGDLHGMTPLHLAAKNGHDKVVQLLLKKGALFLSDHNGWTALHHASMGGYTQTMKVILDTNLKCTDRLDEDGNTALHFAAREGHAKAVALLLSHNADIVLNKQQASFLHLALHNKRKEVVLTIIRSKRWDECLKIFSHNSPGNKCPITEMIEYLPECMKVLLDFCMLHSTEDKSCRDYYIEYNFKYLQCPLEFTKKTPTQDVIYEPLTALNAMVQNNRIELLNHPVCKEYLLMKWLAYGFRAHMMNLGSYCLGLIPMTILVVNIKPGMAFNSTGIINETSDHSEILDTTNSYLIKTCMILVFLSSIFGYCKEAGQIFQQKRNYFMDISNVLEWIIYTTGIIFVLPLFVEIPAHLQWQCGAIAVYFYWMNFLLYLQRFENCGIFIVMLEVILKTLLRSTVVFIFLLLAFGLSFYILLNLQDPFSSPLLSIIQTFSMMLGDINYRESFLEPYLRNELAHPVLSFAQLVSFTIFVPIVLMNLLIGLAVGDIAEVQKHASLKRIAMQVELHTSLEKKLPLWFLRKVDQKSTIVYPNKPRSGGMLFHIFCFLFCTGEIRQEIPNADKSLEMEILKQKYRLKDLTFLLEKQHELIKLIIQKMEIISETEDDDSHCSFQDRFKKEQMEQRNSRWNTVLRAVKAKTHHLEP

Cn1nc(C#N)c2ncn(Cc3nn(CCc4ccc(Cl)cc4)c(=O)o3)c(=O)c21
IC50: 100 nM
